Measured values reported in patent publication US4816459A, “Tetrazolyl-substituted pyrido[1,2-a]pyrimidines and use as SRS-A antagonists” (Tokyo Tanabe Co. Ltd., priority 1985, dated 1989).
In brackets after ≈: the same amount, converted by molar mass. Structures can show the parent of a compound that is named as a salt.

What was measured:
leukotriene D4 = test: Antagonistic effect on leukotriene D4 in excised guinea pig terminal ileum (in vitro, inhibition of contraction); type: cell-based, guinea pig (male, Hartley strain); details: Cavia porcellus, leukotriene D4 0.3 ng/ml, 50% inhibition of contraction
Protocol: Specifically, the terminal ileum was suspended, under aerated conditions, in 10 ml of Tyrode's solution containing 5×10^-7 M atropine and 1×10^-6 M mepyramine. Then, a test compound and leukotriene D4 (manufactured by Wako Junyaku Co., Ltd.) were successively added thereto with an interval of 30 seconds.
Specifically, at varying concentrations of each test compound, the percent inhibition of contraction was calculated from the measured degree of contraction of the ileum according to the following equation: [formula] On the basis of the data thus obtained, a dose-response curve was prepared and used to determine the IC50 value of the test compound.

[1] = system: leukotriene D4-induced airway constriction reaction; test: Inhibition of leukotriene D4-induced Type I allergic reaction (airway constriction), Konzett-Rossler procedure, intravenous injection; type: in vivo, guinea pig (male, Hartley strain); details: Cavia porcellus, 2 min, leukotriene D4 0.5 μg/kg i.v. 2 minutes later, 50% inhibition of airway constriction, read-out: Inhibitory effect on Type I allergic reaction ID50 (intravenous)
Protocol: (§1) Using male guinea pigs of the Hartley strain, weighing about 400 g, in groups of six, the inhibitory effect of the present compounds [I] and physiologically acceptable salts thereof on a Type I allergic reaction induced by leukotriene D4 was tested in two dosage forms (i.e., by intravenous injection and by oral administration) according to the Konzett-Rossler procedure [Naunyn-Schmiederbergs Archiv fur Experimentelle Pathologie und Pharmakologie, Vol. 195, p. 71, 1940]. Specifically, each guinea pig was anesthetized by intraperitoneal administration of 1.5 g/kg of urethane and an incision was made in the neck to expose the trachea. To the exposed trachea was connected a respirator (with a ventilation volume of 5-7 ml, a respiration rate of 70 per minute, and a pulmonary load pressure of 10 cmH2 O; manufactured by Ugo Basile Biological Research Apparatus Co.) by way of a cannula. The volume of air overflowing through the branch of the cannula was measured by means of a Model 7020 Bronchospasm Transducer (manufactured by Ugo Basile Biological Research Apparatus Co.) and recorded with a Model RM-6000 Polygraph (manufactured by Nippon Koden Co., Ltd.).
Intravenous injection tests were carried out as follows: Each guinea pig was treated by intravenous injection of 1 mg/kg of gallamine triethiodide. Then, 20.0 to 6000.0 μg/kg of a test compound and 0.5 μg/kg of leukotriene D4 were successively administered thereto through the cervical vein with an interval of 2 minutes. The volume of air overflowing as a result of the induced airway constriction reaction was measured. The test compound was used in the form of a solution in physiological saline containing sodium hydrogen carbonate or potassium carbonate.
(§2) Both in the intravenous injection tests and in the oral administration tests, leukotriene D4 was used in the form of a solution in physiological saline.
(§3) Both in the intravenous injection tests and in the oral administration tests, the pharmacological effect on the Type I allergic reaction was evaluated in terms of the dose of the test compound at which the airway constriction reaction induced by leukotriene D4 was inhibited by 50% (hereinafter referred to as ID50), provided that ID50 was expressed in μg/kg for the intravenous injection tests and in mg/kg for the oral administration tests. […] On the basis of the data thus obtained, a dose-response curve was prepared and used to determine the ID50 value of the test compound.
(§4) Among the test compounds indicated, the compounds of Examples 1, 6 and 9 used in the intravenous injection tests were prepared according to procedure a described in the respective examples, and those used in the oral administration tests were prepared according to procedure b.

SRS-A = details: Japanese Journal of Allergology 1984; cited from earlier work
[2] = system: SRS-A as represented by leukotriene D4; test: Confirmatory experiment: antagonistic effect on SRS-A as represented by leukotriene D4; details: confirmatory experiment by the inventors
[3] = Acute toxicity (LD50) in rats; details: rat, in vivo, male SD strain rats
Protocol: (§5) The acute toxicity (LD50) of several typical examples of the present compounds [I] and physiologically acceptable salts thereof was tested on 5-weeks-old male ddY strain mice and male SD strain rats. For this purpose, the compounds of Examples 1, 6 and 9 were selected as typical examples. […] For rats, their LD50 values were not less than 4.0 g/kg when administered orally, and not less than 200 mg/kg when administered intravenously.

[4] = system: leukotriene D4-induced airway constriction reaction; test: Inhibition of leukotriene D4-induced Type I allergic reaction (airway constriction), Konzett-Rossler procedure, oral administration; type: in vivo, guinea pig (male, Hartley strain); details: Cavia porcellus; oral 90 minutes before anesthesia; leukotriene D4 0.5 μg/kg i.v.; 50% inhibition of airway constriction; read-out: Inhibitory effect on Type I allergic reaction ID50 (oral)
Protocol: as §1
Oral administration tests were carried out as follows: 1 to 30 mg/kg of a test compound was orally administered to each guinea pig 90 minutes before anesthesia with urethane. Then, the anesthetized guinea pig was treated by intravenous injection of 1 mg/kg of gallamine triethiodide and administration of 0.5 μg/kg of leukotriene D4 through the cervical vein. The volume of air overflowing as a result of the induced airway constriction reaction was measured.
as §2, §3, §4

[5] = Acute toxicity (LD50) in mice; details: mouse, in vivo, 5-weeks-old male ddY strain mice
Protocol: as §5

[6] = intravenous, read-out: LD50, intravenous, rats
[7] = oral, read-out: LD50, oral, rats
[8] = intravenous, read-out: LD50, intravenous, mice
[9] = oral, read-out: LD50, oral, mice

SMILES | IC50 (leukotriene D4) [µg/mL] | ED50 [1] [mg/kg] | type of SRS-A drug (in words) (SRS-A) | antagonistic effect on SRS-A as represented by leukotriene D4 (in words) [2] | LD50 [3, 6] [mg/kg] | LD50 [3, 7] [mg/kg] | ED50 [4] [mg/kg] | LD50 [5, 8] [mg/kg] | LD50 [5, 9] [mg/kg]
CCCc1c(OCc2cc(Br)cn3c(=O)c(-c4nnn[nH]4)cnc23)ccc(C(C)=O)c1O [Example 4, 9-[(4-acetyl-3-hydroxy-2-n-propylphenoxy)methyl]-7-bromo-3-(1H-tetrazol-5-yl)-4H-pyrido[1,2-a]pyrimidin-4-one] | 1 (≈ 2 µM) | 4.9 |  |  |  |  |  |  | 
CCCc1c(OCc2ccc3ncc(-c4nnn[nH]4)c(=O)n3c2)ccc(C(C)=O)c1O [Example 2, 7-[(4-acetyl-3-hydroxy-2-n-propylphenoxy)methyl]-3-(1H-tetrazol-5-yl)-4H-pyrido[1,2-a]pyrimidin-4-one] | 0.1 (≈ 0.238 µM) | 0.16 |  |  |  |  |  |  | 
CCCc1c(OCc2cc(C)cn3c(=O)c(Cc4nnn[nH]4)cnc23)ccc(C(C)=O)c1O [Example 8, 9-[(4-acetyl-3-hydroxy-2-n-propylphenoxy)methyl]-7-methyl-3-[(1H-tetrazol-5-yl)methyl]-4H-pyrido[1,2-a]pyrimidin-4-one] | 0.7 (≈ 1.56 µM) | 1.9 |  |  |  |  |  |  | 
Cc1cccn2c(=O)c(-c3nnn[nH]3)cnc12.[K] [Compound TBX, 9-Methyl-3-(1H-tetrazol-5-yl)-4H-pyrido[1,2-a]pyrimidin-4-one potassium salt, reference compound] | 200 | ≥ 10 | belongs to the SRS-A release suppression type | no antagonistic effect |  |  |  |  | 
CCCc1c(OCc2ccc3ncc(Cc4nnn[nH]4)c(=O)n3c2)ccc(C(C)=O)c1O [Example 7, 7-[(4-acetyl-3-hydroxy-2-n-propylphenoxy)methyl]-3-[(1H-tetrazol-5-yl)methyl]-4H-pyrido[1,2-a]pyrimidin-4-one] | 0.1 (≈ 0.23 µM) |  |  |  |  |  |  |  | 
CCCc1c(OCc2cccn3c(=O)c(-c4nnn[nH]4)cnc23)ccc(C(C)=O)c1O [Example 1, 9-[(4-acetyl-3-hydroxy-2-n-propylphenoxy)methyl]-3-(1H-tetrazol-5-yl)-4H-pyrido[1,2-a]-pyrimidin-4-one] | 0.03 (≈ 0.0714 µM) | 0.097 |  |  | ≥ 200 | ≥ 4000 | 9 | ≥ 100 | ≥ 4000
CCCc1c(OCc2cc(Br)cn3c(=O)c(CCc4nnn[nH]4)cnc23)ccc(C(C)=O)c1O [Example 11, 9-[(4-acetyl-3-hydroxy-2-n-propylphenoxy)methyl]-7-bromo-3-[2-(1H-tetrazol-5yl)ethyl]-4H-pyrido[1,2-a]pyrimidin-4-one] | 0.9 (≈ 1.71 µM) | 2.9 |  |  |  |  |  |  | 
CCCc1c(OCc2ccn3c(=O)c(-c4nnn[nH]4)cnc3c2)ccc(C(C)=O)c1O [Example 3, 8-[(4-acetyl-3-hydroxy-2-n-propylphenoxy)methyl]-3-(1H-tetrazol-5-yl)-4H-pyrido[1,2-a]pyrimidin-4-one] | 0.2 (≈ 0.476 µM) | 0.17 |  |  |  |  |  |  | 
CCCc1c(OCc2cccn3c(=O)c(CCc4nnn[nH]4)cnc23)ccc(C(C)=O)c1O [Example 9, 9-[(4-acetyl-3-hydroxy-2-n-propylphenoxy)methyl]-3-[2-(1H-tetrazol-5-yl)ethyl]-4H-pyrido[1,2-a]pyrimidin-4-one] | 0.005 (≈ 0.0111 µM) | 0.038 |  |  | ≥ 200 | ≥ 4000 | 5 | ≥ 100 | ≥ 4000
CCCc1c(OCc2cccn3c(=O)c(Cc4nnn[nH]4)cnc23)ccc(C(C)=O)c1O [Example 6, 9-[(4-acetyl-3-hydroxy-2-n-propylphenoxy)methyl]-3-[(1H-tetrazol-5-yl)methyl]-4H-pyrido[1,2-a]pyrimidin-4-one] | 0.01 (≈ 0.023 µM) | 0.11 |  |  | ≥ 200 | ≥ 4000 | 10 | ≥ 100 | ≥ 4000
CCCc1c(OCc2cc(C)cn3c(=O)c(-c4nnn[nH]4)cnc23)ccc(C(C)=O)c1O [Example 5, 9-[(4-acetyl-3-hydroxy-2-n-propylphenoxy)methyl]-7-methyl-3-(1H-tetrazol-5-yl)-4H-pyrido[1,2-a]pyrimidin-4-one] | 0.8 (≈ 1.84 µM) |  |  |  |  |  |  |  | 
CCCc1c(OCc2ccn3c(=O)c(CCc4nnn[nH]4)cnc3c2)ccc(C(C)=O)c1O [Example 10, 8-[(4-acetyl-3-hydroxy-2-n-propylphenoxy)methyl]-3-[2-(1H-tetrazol-5-yl)ethyl]-4H-pyrido[1,2-a]pyrimidin-4-one] | 0.6 (≈ 1.34 µM) |  |  |  |  |  |  |  | 
CCCc1c(OCc2cccn3c(=O)c(-c4nn[nH]n4)cnc23)ccc(C(C)=O)c1O [Example 12, 9-[(4-acetyl-3-hydroxy-2-n-propylphenoxy)methyl]-3-(1H-tetrazol-5-yl)-4H-pyrido[1,2-a]pyrimidin-4-one potassium salt] | 0.03 | 0.097 |  |  |  |  | 10 |  | 
